According to ChEMBL document CHEMBL3885881, “DrugMatrix”:

Species on record: Rattus norvegicus
Test: DrugMatrix - Regimen: Daily Repeat
Type: toxicity, organism-based, Sprague-Dawley
Parameters: regimen Daily Repeat, gender Male, age 6-8 weeks
Details: in vivo, iv, vehicle 100 % SALINE; for ABSOLUTE BASOPHIL / ABSOLUTE EOSINOPHIL / ABSOLUTE LYMPHOCYTE / ABSOLUTE MONOCYTE / ABSOLUTE SEGMENTED NEUTROPHIL / BASOPHIL / EOSINOPHIL / ERYTHROCYTE COUNT / HEMATOCRIT / HEMOGLOBIN / LEUKOCYTE COUNT / LYMPHOCYTE / MEAN CORPUSCULAR HEMOGLOBIN / MEAN CORPUSCULAR HEMOGLOBIN CONCENTRATION / MEAN CORPUSCULAR VOLUME / MONOCYTE / NEUTROPHIL / NUCLEATED RED BLOOD CELLS / PLATELET COUNT: tissue Blood; for ALANINE AMINOTRANSFERASE / ALBUMIN / ALKALINE PHOSPHATASE / ASPARTATE AMINOTRANSFERASE / BLOOD UREA NITROGEN / CARBON DIOXIDE / CHLORIDE / CHOLESTEROL / CREATINE PHOSPHOKINASE / CREATININE / GLUCOSE / LACTATE DEHYDROGENASE / LIPASE / PHOSPHORUS / POTASSIUM / SODIUM / TOTAL BILIRUBIN / TOTAL PROTEIN / URIC ACID: tissue Plasma
[1] = 0 mg/kg, 72 h, dose level Control, time 3 day
[2] = 0 mg/kg, 120 h, dose level Control, time 5 day
[3] = 0.08 mg/kg, 72 h, dose level Low, time 3 day

In the case of `CC[C@]1(O)C[C@@H]2CN(CCc3c([nH]c4ccccc34)[C@@](C(=O)OC)(c3cc4c(cc3OC)N(C)[C@H]3[C@@](O)(C(=O)OC)[C@H](OC(C)=O)[C@]5(CC)C=CCN6CC[C@]43[C@@H]65)C2)C1` [VINBLASTINE], the “ABSOLUTE BASOPHIL” value [1] is reported as 0 CELLS/uL, the “ABSOLUTE EOSINOPHIL” value [1] is reported as 21.67 CELLS/uL and the “ABSOLUTE LYMPHOCYTE” value [1] is reported as 10193.67 CELLS/uL. For the same compound, the “ABSOLUTE MONOCYTE” value [1] was 165.83 CELLS/uL, the “ABSOLUTE SEGMENTED NEUTROPHIL” value [1] was 702.17 CELLS/uL and the BASOPHIL [1] was 0%. For the same compound, the EOSINOPHIL [1] was 0.17%, the “ERYTHROCYTE COUNT” value [1] was 5.39 x10E6/uL and the HEMATOCRIT [1] was 34.62%. For the same compound, the HEMOGLOBIN [1] was 13.8 G/DL, the “LEUKOCYTE COUNT” value [1] was 11.08 x10E3/uL and the LYMPHOCYTE [1] was 91.83%. The “MEAN CORPUSCULAR HEMOGLOBIN” value [1] was 25.68 pg, the “MEAN CORPUSCULAR HEMOGLOBIN CONCENTRATION” value [1] was 39.9 G/DL and the “MEAN CORPUSCULAR VOLUME” value [1] was 64.37 fL. For the same compound, the MONOCYTE [1] was 1.5%, the NEUTROPHIL [1] was 6.5% and the “NUCLEATED RED BLOOD CELLS” value [1] was 0 /100WBC. For the same compound, the “PLATELET COUNT” value [1] was 1202.83 x10E3/uL, the “ALANINE AMINOTRANSFERASE” value [1] was 55.5 u/L and the ALBUMIN [1] was 4.22 G/DL. For the same compound, the “ALKALINE PHOSPHATASE” value [1] was 406.83 u/L, the “ASPARTATE AMINOTRANSFERASE” value [1] was 101.5 u/L and the “BLOOD UREA NITROGEN” value [1] was 13.5 mg/dL. The “CARBON DIOXIDE” value [1] was 30.33 mmol/L, the CHLORIDE [1] was 102.17 MEQ/L and the CHOLESTEROL [1] was 63.67 mg/dL. The “CREATINE PHOSPHOKINASE” value [1] was 732.67 u/L, the CREATININE [1] was 0.2 mg/dL and the GLUCOSE [1] was 157 mg/dL. For the same compound, the “LACTATE DEHYDROGENASE” value [1] was 442.5 u/L, the LIPASE [1] was 10.83 u/L and the PHOSPHORUS [1] was 12.68 mg/dL. The POTASSIUM [1] was 5.67 MEQ/L, the SODIUM [1] was 144 MEQ/L and the “TOTAL BILIRUBIN” value [1] was 0.15 mg/dL. The “TOTAL PROTEIN” value [1] was 6.02 G/DL, the “URIC ACID” value [1] was 1.55 mg/dL and the “ABSOLUTE BASOPHIL” value [2] was 0 CELLS/uL. For the same compound, the “ABSOLUTE EOSINOPHIL” value [2] was 17 CELLS/uL, the “ABSOLUTE LYMPHOCYTE” value [2] was 11849.17 CELLS/uL and the “ABSOLUTE MONOCYTE” value [2] was 69.83 CELLS/uL. The “ABSOLUTE SEGMENTED NEUTROPHIL” value [2] was 730.67 CELLS/uL, the BASOPHIL [2] was 0% and the EOSINOPHIL [2] was 0.17%. For the same compound, the “ERYTHROCYTE COUNT” value [2] was 5.93 x10E6/uL, the HEMATOCRIT [2] was 37.42% and the HEMOGLOBIN [2] was 14.4 G/DL. The “LEUKOCYTE COUNT” value [2] was 12.67 x10E3/uL, the LYMPHOCYTE [2] was 93.17% and the “MEAN CORPUSCULAR HEMOGLOBIN” value [2] was 24.32 pg. The “MEAN CORPUSCULAR HEMOGLOBIN CONCENTRATION” value [2] was 38.5 G/DL, the “MEAN CORPUSCULAR VOLUME” value [2] was 63.08 fL and the MONOCYTE [2] was 0.5%. The NEUTROPHIL [2] was 6.17%, the “NUCLEATED RED BLOOD CELLS” value [2] was 0 /100WBC and the “PLATELET COUNT” value [2] was 1170.5 x10E3/uL. The “ALANINE AMINOTRANSFERASE” value [2] was 51 u/L, the ALBUMIN [2] was 4.12 G/DL and the “ALKALINE PHOSPHATASE” value [2] was 392.67 u/L. The “ASPARTATE AMINOTRANSFERASE” value [2] was 81.67 u/L, the “BLOOD UREA NITROGEN” value [2] was 16.17 mg/dL and the “CARBON DIOXIDE” value [2] was 30.67 mmol/L. For the same compound, the CHLORIDE [2] was 100.5 MEQ/L, the CHOLESTEROL [2] was 64.83 mg/dL and the “CREATINE PHOSPHOKINASE” value [2] was 242.67 u/L. For the same compound, the CREATININE [2] was 0.2 mg/dL, the GLUCOSE [2] was 186.83 mg/dL and the “LACTATE DEHYDROGENASE” value [2] was 188 u/L. It also gave an LIPASE [2] of 10.83 u/L, a PHOSPHORUS [2] of 11.67 mg/dL and a POTASSIUM [2] of 5.51 MEQ/L. The SODIUM [2] was 142.55 MEQ/L, the “TOTAL BILIRUBIN” value [2] was 0.22 mg/dL and the “TOTAL PROTEIN” value [2] was 6.08 G/DL. The “URIC ACID” value [2] was 1.85 mg/dL, the “ABSOLUTE BASOPHIL” value [3] was 0 CELLS/uL and the “ABSOLUTE EOSINOPHIL” value [3] was 42 CELLS/uL. The “ABSOLUTE LYMPHOCYTE” value [3] was 6254.33 CELLS/uL, the “ABSOLUTE MONOCYTE” value [3] was 40 CELLS/uL and the “ABSOLUTE SEGMENTED NEUTROPHIL” value [3] was 297 CELLS/uL. The BASOPHIL [3] was 0%, the EOSINOPHIL [3] was 0.67% and the “ERYTHROCYTE COUNT” value [3] was 4.48 x10E6/uL. The HEMATOCRIT [3] was 28.87%, the HEMOGLOBIN [3] was 11.63 G/DL and the “LEUKOCYTE COUNT” value [3] was 6.63 x10E3/uL. For the same compound, the LYMPHOCYTE [3] was 94.33%, the “MEAN CORPUSCULAR HEMOGLOBIN” value [3] was 26 pg and the “MEAN CORPUSCULAR HEMOGLOBIN CONCENTRATION” value [3] was 40.33 G/DL. The “MEAN CORPUSCULAR VOLUME” value [3] was 64.43 fL, the MONOCYTE [3] was 0.67% and the NEUTROPHIL [3] was 4.33%. For the same compound, the “NUCLEATED RED BLOOD CELLS” value [3] was 0 /100WBC, the “PLATELET COUNT” value [3] was 825.33 x10E3/uL and the “ALANINE AMINOTRANSFERASE” value [3] was 47.67 u/L. For the same compound, the ALBUMIN [3] was 4.1 G/DL, the “ALKALINE PHOSPHATASE” value [3] was 395.67 u/L and the “ASPARTATE AMINOTRANSFERASE” value [3] was 99 u/L. The “BLOOD UREA NITROGEN” value [3] was 14 mg/dL, the “CARBON DIOXIDE” value [3] was 32.33 mmol/L and the CHLORIDE [3] was 103.33 MEQ/L. For the same compound, the CHOLESTEROL [3] was 67.33 mg/dL, the “CREATINE PHOSPHOKINASE” value [3] was 526.33 u/L and the CREATININE [3] was 0.17 mg/dL. The GLUCOSE [3] was 135 mg/dL, the “LACTATE DEHYDROGENASE” value [3] was 170.67 u/L and the LIPASE [3] was 10.33 u/L. It also gave a PHOSPHORUS [3] of 11.9 mg/dL, a POTASSIUM [3] of 6.35 MEQ/L and an SODIUM [3] of 144.8 MEQ/L. For the same compound, the “TOTAL BILIRUBIN” value [3] was 0.17 mg/dL, the “TOTAL PROTEIN” value [3] was 5.6 G/DL and the “URIC ACID” value [3] was 1.13 mg/dL.
